Patent US10800741B2 (ANCUREALL PHARMACEUTICAL (SHANGHAI) CO., LTD., priority 2017, dated 2020)
pIC50: −log10 of the molar value.

Assays:
Type in all cases: cell-based, Human
[1] = tested on: H1581 (FGFR1 amp); assay: In vitro growth inhibition of H1581 tumor cells (MTT/CCK8); conditions: Homo sapiens, NCI-H1581; in vitro growth inhibition (or induction of apoptosis), cells cultured 3 to 5 days, MTT (CCK8); read-out: IC50 H1581 (FGFR1 amp)
[2] = tested on: KATO III (FGFR2 amp); assay: In vitro growth inhibition of KATO III tumor cells (MTT/CCK8); conditions: Homo sapiens, KATO III; in vitro growth inhibition (or induction of apoptosis), cells cultured 3 to 5 days, MTT (CCK8); read-out: IC50 KATO III (FGFR2 amp)
[3] = tested on: Hep3B2 (FGFR3/4+++); assay: In vitro growth inhibition of Hep3B2 tumor cells (MTT/CCK8); conditions: Homo sapiens, Hep3B; in vitro growth inhibition (or induction of apoptosis), cells cultured 3 to 5 days, MTT (CCK8); read-out: IC50 Hep3B2 (FGFR3/4+++)
[4] = tested on: MOLM-13 (FLT3-ITD); assay: In vitro growth inhibition of MOLM-13 tumor cells (MTT/CCK8); conditions: Homo sapiens, MOLM-13; in vitro growth inhibition (or induction of apoptosis), cells cultured 3 to 5 days, MTT (CCK8); read-out: IC50 MOLM-13 (FLT3-ITD)
[5] = tested on: KCL-22 (BCR-ABL); assay: In vitro growth inhibition of KCL-22 tumor cells (MTT/CCK8); conditions: Homo sapiens, KCL-22; in vitro growth inhibition (or induction of apoptosis), cells cultured 3 to 5 days, MTT (CCK8); read-out: IC50 KCL-22 (BCR-ABL)
[6] = tested on: Kasumi-1 (KIT N822K); assay: In vitro growth inhibition of Kasumi-1 tumor cells (MTT/CCK8); conditions: Homo sapiens, Kasumi 1; in vitro growth inhibition (or induction of apoptosis), cells cultured 3 to 5 days, MTT (CCK8); read-out: IC50 Kasumi-1 (KIT N822K)
[7] = tested on: H1703 (PDGFRa amp); assay: In vitro growth inhibition of H1703 tumor cells (MTT/CCK8); conditions: Homo sapiens, NCI-H1703; in vitro growth inhibition (or induction of apoptosis), cells cultured 3 to 5 days, MTT (CCK8); read-out: IC50 H1703 (PDGFRa amp)
[8] = tested on: Karpas 299 (NPM-ALK); assay: In vitro growth inhibition of Karpas 299 tumor cells (MTT/CCK8); conditions: Homo sapiens, KARPAS-299; in vitro growth inhibition (or induction of apoptosis), cells cultured 3 to 5 days, MTT (CCK8); read-out: IC50 Karpas 299 (NPM-ALK)

| Compound | pIC50 [1] | pIC50 [2] | pIC50 [3] | pIC50 [4] | pIC50 [5] | pIC50 [6] | pIC50 [7] | pIC50 [8] |
| --- | --- | --- | --- | --- | --- | --- | --- | --- |
| CNC(=O)c1cc2c(Oc3ccc(NC(=O)Nc4cc(C(C)(C)C)nn4C)c(C)c3)ccnc2cc1OC [Compound 50, 4-{4-[3-(5-tert-butyl-2-methyl-2H-pyrazol-3-yl)-ureido]-3-methyl-phenoxy}-7-methoxy quinolin-6-carboxylate acid methylamide] | 7.23 | 9.51 | 7.01 | 7.79 | 7.05 | 7.18 | 7.84 | 6.10 |
| CNC(=O)c1cc2c(Oc3ccc(NC(=O)Nc4cc(C(C)(C)C)n[nH]4)c(C(F)(F)F)c3)ccnc2cc1OC [Compound 51, 4-{4-[3-(5-tert-butyl-2H-pyrazol-3-yl)-ureido]-3-trifluoromethyl-phenoxy}-7-methoxyquinolin-6-carboxylic acid methylamide] | 7.29 | 8.94 | 7.06 | 6.85 | 7.89 | 7.90 | 7.32 | 6.31 |
| CNC(=O)c1cc2c(Oc3ccc(NC(=O)Nc4cc(C(C)(C)C)nn4C)cc3C)ccnc2cc1OC [Compound 53, 4-{4-[3-(5-tert-butyl-2-methyl-2H-pyrazol-3-yl)-ureido]-2-methyl-phenoxy}-7-methoxy quinolin-6-carboxylate acid methylamide] | 6.66 | 8.17 | 6.46 | 8.95 | 7.54 | 7.75 | 7.19 | 6.52 |
| CNC(=O)c1cc2c(Oc3ccc(NC(=O)Nc4cc(C(C)(C)C)nn4C)cc3Cl)ccnc2cc1OC [Compound 55, 4-{4-[3-(5-tert-butyl-2-methyl-2H-pyrazol-3-yl)-ureido]-2-chloro-phenoxy}-7-methoxy quinolin-6-carboxylic acid methylamide] | 7.10 | 8.53 | 6.80 | 8.94 | 7.24 | 7.04 | 7.08 | 6.80 |
| CNC(=O)c1cc2c(Oc3ccc(NC(=O)Nc4cc(C(C)(C)C)n[nH]4)c(Cl)c3Cl)ccnc2cc1OC [Compound 56, 4-{4-[3-(5-tert-butyl-2H-pyrazol-3-yl)-ureido]-2,3-dichloro-phenoxy}-7-methoxyquinol in-6-carboxylic acid methylamide] | 8.44 | 9.55 | 7.75 | 8.54 | 8.85 | 8.97 | 7.72 | 7.41 |
| CNC(=O)c1cc2c(Oc3ccc(NC(=O)Nc4cc(C(C)(C)C)nn4C)c(Cl)c3Cl)ccnc2cc1OC [Compound 57, 4-{4-[3-(5-tert-butyl-2-methyl-2H-pyrazol-3-yl)-ureido]-2,3-dichloro-phenoxy}-7-methoxyquinolin-6-carboxylic acid methylamide] | 8.55 | 9.39 | 7.66 | 8.89 | 8.59 | 8.52 | 7.93 | 7.16 |
| CNC(=O)c1cc2c(Oc3ccc(NC(=O)Nc4cc(C(C)(C)C)nn4C)c(Cl)c3)ccnc2cc1OCCOC [Compound 59, 4-{4-[3-(5-tert-butyl-2-methyl-2H-pyrazol-3-yl)-ureido]-3-chloro-phenoxy}-7-(2-methoxy-ethoxy)-quinolin-6-carboxylic acid methylamide] | 8.30 | 9.96 | 7.71 | 8.53 | 8.02 | 8.71 | 8.09 | 6.71 |
| CNC(=O)c1cc2c(Oc3ccc(NC(=O)Nc4cc(C(C)(C)C)nn4C)c(Cl)c3Cl)ccnc2cc1OCCOC [Compound 60, 4-{4-[3-(5-tert-butyl-2-methyl-2H-pyrazol-3-yl)-ureido]-2,3-dichloro-phenoxy}-7-(2-methoxy-ethoxy)-quinolin-6-carboxylic acid methylamide] | 8.88 | 9.44 | 8.28 | 9.05 | 8.98 | 9.31 | 8.17 | 7.91 |
| COc1cc2nccc(Oc3ccc(NC(=O)Nc4cc(C(C)(C)C)n[nH]4)c(Cl)c3)c2cc1NC(=O)C1CCCC1 [Compound 65, cyclopentane carboxylic acid (4-{4-[3-(5-tert-butyl-2H-pyrazol-3-yl)-ureido]-3-chloro-phenoxy}-7-methoxy-quinolin-6-yl)-amide] | 6.66 | 7.96 | 6.80 | 7.14 | 6.79 | 6.25 | 6.61 | < 6.00 |
| CCOc1cc2ncc(C#N)c(Oc3ccc(NC(=O)Nc4cc(C(C)(C)C)n[nH]4)c(Cl)c3)c2cc1NC(C)=O [Compound 68, N-(4-{4-[3-(5-tert-butyl-2H-pyrazol-3-yl)-ureido]-3-chloro-phenoxy}-3-cyano-7-ethoxy-quinolin-6-yl) acetamide] | < 6.00 | < 6.00 | < 6.00 | < 6.00 | < 6.00 | < 6.00 | < 6.00 | < 6.00 |
| CCC(=O)N1CCC(NC(=O)Nc2ccc(Oc3ccnc4cc(OC)c(C(N)=O)cc34)cc2Cl)C1 (stereo not shown) [Compound 69, 4-{3-chloro-4-[3-(1-propionyl-pyrrolidin-3-yl)-ureido]-phenoxy}-7-methoxyquinolin-6-carboxamide] | < 6.00 | < 6.00 | < 6.00 | < 6.00 | < 6.00 | < 6.00 | < 6.00 | < 6.00 |

Further lines, results first:

| pIC50 [1] | pIC50 [2] | pIC50 [3] | pIC50 [4] | pIC50 [5] | pIC50 [6] | pIC50 [7] | pIC50 [8] | Compound |
| --- | --- | --- | --- | --- | --- | --- | --- | --- |
| 8.26 | 9.24 | 7.74 | 8.63 | 8.51 | 7.99 | 7.83 | 6.38 | CNC(=O)c1cc2c(Oc3ccc(NC(=O)Nc4cc(C(C)(C)C)n[nH]4)c(Cl)c3)ccnc2cc1OCCOC [Compound 58, 4-{4-[3-(5-tert-butyl-2H-pyrazol-3-yl)-ureido]-3-chloro-phenoxy}-7-(2-methoxy-ethoxy)-quinolin-6-carboxylic acid methylamide] |
| 6.88 | 7.73 | 6.43 | 7.21 | 6.22 | 6.24 | 7.12 | 6.22 | COc1cc2nccc(Oc3ccc(NC(=O)Nc4cc(C(C)(C)C)n[nH]4)c(Cl)c3)c2cc1C(=O)N(C)C [Compound 61] |
| 7.86 | 8.72 | 7.14 | 8.11 | 7.59 | 7.32 | 7.03 | 6.51 | COCCNC(=O)c1cc2c(Oc3ccc(NC(=O)Nc4cc(C(C)(C)C)n[nH]4)c(Cl)c3)ccnc2cc1OC [Compound 62, 4-{4-[3-(5-tert-butyl-2H-pyrazol-3-yl)-ureido]-3-chloro-phenoxy}-7-methoxyquinolin-6-carboxylic acid (2-methoxy-ethyl)-amide] |
| 8.37 | 9.51 | 7.80 | 8.51 | 8.33 | 8.06 | 7.92 | 6.95 | COc1cc2nccc(Oc3ccc(NC(=O)Nc4cc(C(C)(C)C)n[nH]4)c(Cl)c3)c2cc1NC(C)=O [Compound 63, N-(4-{4-[3-(5-tert-butyl-2H-pyrazol-3-yl)-ureido]-3-chloro-phenoxy}-7-methoxyquinolin-6-yl)-acetamide] |
| 8.06 | 9.20 | 7.72 | 8.06 | 7.76 | 7.47 | 7.88 | 6.73 | CCC(=O)Nc1cc2c(Oc3ccc(NC(=O)Nc4cc(C(C)(C)C)n[nH]4)c(Cl)c3)ccnc2cc1OC [Compound 64, N-(4-{4-[3-(5-tert-butyl-2H-pyrazol-3-yl)-ureido]-3-chloro-phenoxy}-7-methoxyquinolin-6-yl)-propionamide] |
| 6.79 | 8.17 | 6.57 | 7.14 | 7.72 | 7.61 | 6.36 | 6.06 | COc1cc2nccc(Oc3ccc(NC(=O)Nc4cc(C(C)(C)C)n[nH]4)c(Cl)c3)c2cc1C#N [Compound 67, 1-(5-tert-butyl-2H-pyrazol-3-yl)-3-[2-chloro-4-(6-cyano-7-methoxy-quinolin-4-yloxy)-phenyl]-urea] |
